The values that follow come from article PMC7708037, “Targeting OGG1 arrests cancer cell proliferation by inducing replication stress” (Nucleic Acids Research, 2020).

One experiment has as its system A3 cells. The experiment can be described thus: Cell cycle distribution by flow cytometry. The class given is cell-based, human. The settings on record: 10 μM. As to the method: At the indicated time points, compound/dox treated cells were incubated in medium containing 10 μM 5-ethynyl-2′-deoxyuridine (EdU) (Thermo Fisher, A10044) for 20 min. Next, cells were fixed in cold 70% ethanol overnight. The azide alkyne Huisgen cycloaddition (‘Click reaction’) was carried out according to the Click-iT EdU Imaging Manual (Thermo Fisher) using various fluorescent dyes: Alexa Fluor® 488 azide (Thermo Fisher, A10266), Alexa Fluor® 647 azide (Thermo Fisher, A10277), or TAMRA azide (Thermo Fisher, T10182), depending on assay conditions. […] Data was analyzed using Kaluza® Flow Analysis Software (Beckman Coulter). […]
untreated parental HEK293T. […] Statistical significance was determined using Mann Witney test (**, P<0.01, ***, P<0.001 and ****, P<0.0001 , ns, non-significant).
Supplementary Fig. S6: 8 -oxodG levels and cell cycle distribution. […] The indicated shNT cells were treated with 250 ng/ml doxycycline for 0, 96, or 144 h, and the amount of genomic 8-oxodG was quantified with LC -MS/MS. […] Cells were treated with 10 µM TH5487 or an equivalent volume DMSO for the indicated times, and the cell cycle distribution was determined by flow cytometry. […] A3 shNT (grey), sh2 (blue), and sh3 (red), were treated with 250 ng/ml doxycycline for 48 –120 h, and the cell cycle distribution was determined with flow cytometry. […]

The test system of experiment [1] is A3 shNT cells transcriptome. As to the kind of experiment: RNA-sequencing and Gene Set Enrichment Analysis. It is filed as cell-based, human. The settings on record: 10 μM, 24 h vs DMSO. As for the experimental part:
To extract bulk RNA from cells, the pellets were resuspended in 500 μl of TRI Reagent. After 5 min, 100 μl of chloroform was added and the tubes were shaken by hand for one minute. After 15 min incubation, the samples were centrifuged at 12 000 × g for 15 min at 4°C. 300 μl of the aqueous phase were then mixed thoroughly with 300 μl of Isopropanol, 30 μl of 3M Sodium Acetate and 1 μl of Pellet Paint (Merck 69049) and incubated over night at −20°C. The following day, the samples were centrifuged at 20 000 × g g for 30 min and the pellets washed twice with 600 μl of 70% ethanol. After drying, the pellets were resuspended in 15 μl of Elution Buffer and the concentration of RNA was measured using the Qubit RNA High Sensitivity Assay (Thermo Fischer Q32852) according to the manufacturer's instructions.
After diluting the samples, 2 ng of RNA were used as input for the Smart-seq2 RNA-sequencing protocol ([41]) and 50 bp single ends were sequenced on an Illumina HiSeq 3000 sequencer. Reads were mapped to the ENSEMBL human transcriptome GRCh37 using Tophat 2.1.1 to generate the read count matrix.
Differential expression analysis was performed with DESeq2 (v. 1.26.0) ([42]). […] For Gene Set Enrichment Analysis only genes with a mean expression >5 normalized counts as determined by DESeq2 were taken into account. […]
Figure 6. […] Only genes with a mean normalized count >5 were analyzed. […]

With `O=C(Nc1ccc(I)cc1)N1CCC(n2c(=O)[nH]c3c(Br)cccc32)CC1` [TH5487], in the experiment on A3 cells, the Cell cycle distribution entry is reported as “remained largely constant” and the Sub-G1 population result is “accumulation in the sub-G1 population”. Also, the “'DNA replication' gene signature (GSEA)” value in experiment [1] was “one of the most downregulated gene signatures”.
